Results published in ChEMBL document CHEMBL3137667, “[Drug-induced liver injury; fourteenth updated edition of the bibliographic database of liver injuries and related drugs]” (Gastroenterol Clin Biol, 2004).

How the values were obtained:
[1] = human
[2] = human, serum
[3] = Highest frequency of moderate liver toxicity observed during clinical trials, expressed as a percentage. [column '% BIOL' in source]; details: human
[4] = human; remark: listed apart in the source
[5] = human; remark: listed apart in the source
[6] = Proposed mechanism(s) of liver damage. [column 'MEC' in source]; details: human
[7] = Times to onset, minimal and maximal, observed in the indexed observations. [column 'DELAI' in source]; details: human
[8] = human; remark: listed apart in the source
[9] = human; remark: listed apart in the source
[10] = human; remark: listed apart in the source
[11] = human, serum, 4383 h
[12] = human; remark: listed apart in the source
[13] = human, serum; remark: listed apart in the source
[14] = human; remark: listed apart in the source
[15] = human; remark: listed apart in the source
[16] = Highest frequency of acute liver toxicity observed during clinical trials, expressed as a percentage. [column '% AIGUE' in source]; details: human
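Wherever Hepatotoxicity (association with vascular disease) is given: count of indexed literature references reporting vascular liver injury in humans, e.g. peliosis hepatitis, hepatic veno-occlusive disease or Budd-Chiari syndrome.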
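Wherever Hepatotoxicity (benign tumour) is given: value is a count of indexed literature references citing a benign tumour confirmed by histopathology.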
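Wherever Hepatotoxicity (choleostasis) is given: human cholestatic liver injury, shown by histopathology or by peak ALT or AST elevation over alkaline phosphatase ratio below 2, value counts indexed literature reports.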
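Wherever Hepatotoxicity (chronic liver disease) is given: chronic liver injury confirmed by histopathology or persistently raised serum aminotransferase activity beyond 6 months, value given as the count of indexed literature references.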
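Wherever Hepatotoxicity (cirrhosis) is given: value is a count of indexed literature references reporting cirrhosis confirmed by histopathology.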
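Wherever Hepatotoxicity (cytolytic) is given: human cytolytic liver injury, shown by histopathology or by a ratio above 5 of peak ALT or AST elevation to alkaline phosphatase elevation, value counts indexed references.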
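Wherever Hepatotoxicity (granulomatous hepatitis) is given: value is a count of indexed literature references reporting granulomatous liver disease confirmed by histopathology.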
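Wherever Hepatotoxicity (malignant tumour) is given: malignant tumour confirmed by histopathology, value gives the count of indexed literature references reporting it.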
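Wherever Hepatotoxicity (severe hepatitis) is given: human clinical data: severe hepatitis, meaning potentially life-threatening liver failure or clinically observed cases, the value counts how many indexed literature references report it.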
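Wherever Hepatotoxicity (steatosis) is given: steatosis confirmed by histopathology, value is the count of indexed references.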

SMILES | Hepatotoxicity (steatosis) [1] | Hepatotoxicity (moderate) [2] | Hepatotoxicity (moderate) [3] [%] | Hepatotoxicity (choleostasis) [4] | Hepatotoxicity (malignant tumour) [5] | Hepatotoxicity (mechanism) [6] | Hepatotoxicity (time to onset) [7] | Hepatotoxicity (benign tumour) [8] | Hepatotoxicity (granulomatous hepatitis) [9] | Hepatotoxicity (association with vascular disease) [10] | Hepatotoxicity (chronic liver disease) [11] | Hepatotoxicity (cirrhosis) [12] | Hepatotoxicity (acute) [13] | Hepatotoxicity (cytolytic) [14] | Hepatotoxicity (severe hepatitis) [15] | Hepatotoxicity (acute) [16] [%] | further results
CN[C@@H]1[C@H](O[C@H]2[C@H](O[C@H]3[C@H](O)[C@@H](O)[C@H](NC(=N)N)[C@@H](O)[C@@H]3NC(=N)N)O[C@@H](C)[C@]2(O)CO)O[C@@H](CO)[C@H](O)[C@H]1O [DIHYDROSTREPTOMYCIN] | 0 | 0 | 0 | 0 | 0 | Allergic | < 1 days | 0 | 0 | 0 | 0 | 0 | 1 | 1 | 0 | 0 | –
C[C@H](CCc1ccccc1)NC[C@H](O)c1ccc(O)c(C(N)=O)c1 [DILEVALOL] | 0 | 1 | 2 | 0 | 0 | Allergic | 2 weeks | 0 | 0 | 0 | 0 | 0 | 1 | 1 | 1 | 0 | –
Cc1c(N(C)CS(=O)(=O)[O-])c(=O)n(-c2ccccc2)n1C.[Na+] [DIPYRONE SODIUM] | 0 | 1 | 0 | 0 | 0 | Allergic | 2 hours - 18 days | 0 | 0 | 0 | 0 | 0 | 3 | 0 | 0 | 0 | –
O=C1Nc2ccc(Cl)cc2[C@@](C#CC2CC2)(C(F)(F)F)O1 [EFAVIRENZ] | 0 | 2 | 18.8 | 2 | 0 | Allergic | 10 days - 4 weeks | 0 | 0 | 0 | 0 | 0 | 8 | 8 | 4 | 10.9 | –
COc1cc(/C=C/C(=O)O)ccc1O [FERULATE] | 0 | 0 | 0 | 1 | 0 | Dose-dependant | 2 days - 5 years | 0 | 0 | 0 | 1 | 2 | 2 | 1 | 0 | 0 | –
Nc1nc(=O)[nH]cc1F [FLUCYTOSINE] | 0 | 22 | 55 | 3 | 0 | Dose-dependant | 2 weeks - 2 months | 0 | 0 | 0 | 0 | 0 | 5 | 3 | 2 | 2 | –
CC1CCc2cc(F)cc3c(=O)c(C(=O)O)cn1c23 (centres undefined) [FLUMEQUINE] | 0 | 0 | 0 | 0 | 0 | Allergic | 24 days | 0 | 1 | 0 | 0 | 0 | 0 | 0 | 0 | 0 | –
NCC1(CC(=O)O)CCCCC1 [GABAPENTIN] | 1 | 2 | 2.4 | 3 | 0 | Allergic | 9 days - 4 months | 0 | 0 | 0 | 0 | 0 | 5 | 1 | 0 | 2.4 | –
Cc1ccc(S(=O)(=O)NC(=O)NN2CC3CCCC3C2)cc1 (centres undefined) [GLICLAZIDE] | 0 | 1 | 0 | 1 | 0 | Allergic | 4 weeks - 5 weeks | 0 | 0 | 0 | 0 | 0 | 3 | 2 | 0 | 0 | –
c1ccc2c(CCC3CCNCC3)c[nH]c2c1 [INDALPINE] | 1 | 1 | 0 | 1 | 0 | Allergic | 25 days - 4 months | 0 | 0 | 0 | 0 | 0 | 1 | 1 | 0 | 0 | –
CNC(=O)c1c(I)c(C(=O)NCC(=O)Nc2c(I)c(C(=O)O)c(I)c(C(=O)NCCO)c2I)c(I)c(N(C)C(C)=O)c1I [IOXAGLIC ACID] | 0 | 0 | 0 | 0 | 0 | Allergic | 1 days | 0 | 0 | 0 | 0 | 0 | 1 | 1 | 0 | 0 | –
CC1=C(/C=C/C(C)=C/C=C/C(C)=C\C(=O)O)C(C)(C)CCC1 [ISOTRETINOIN] | 1 | 35 | 44.4 | 0 | 0 | Dose-dependant | 4 months | 0 | 0 | 0 | 0 | 0 | 3 | 1 | 0 | 8.8 | –
CC(=O)CCC1C(=O)N(c2ccccc2)N(c2ccccc2)C1=O [KEBUZONE] | 0 | 1 | 26.7 | 3 | 0 | Allergic | 1 week - 1 month | 0 | 0 | 0 | 0 | 0 | 4 | 3 | 0 | 2.7 | –
CNCCCC12CCC(c3ccccc31)c1ccccc12 [MAPROTILINE] | 0 | 5 | – | – | 0 | – | 2 days - 4 years | 0 | – | 0 | 0 | 0 | 8 | – | – | – | Hepatotoxicity (moderate) ([3]; Liver): 25%; Hepatotoxicity (choleostasis) ([4]; Liver): 4; Hepatotoxicity (mechanism) ([6]; Liver): Dose-dependant; Hepatotoxicity (granulomatous hepatitis) ([9]; Liver): 0; Hepatotoxicity (cytolytic) ([14]; Liver): 7; Hepatotoxicity (severe hepatitis) ([15]; Liver): 0; Hepatotoxicity (acute) ([16]; Liver): 0%
